pIC50, pKi: −log10 of the molar value.
Legend:
CRTH2 [1] = biological target: T1, CRTH2 (Homo sapiens (Human), UniProt Q9Y5Y4); assay: Radioligand binding assay ([3H]PGD2 displacement, hCRTH2 HEK293 (EBNA) cell membranes); details: 1.5 nM [3H]PGD2, 10 μg hCRTH2 HEK293 (EBNA) membrane protein, 60 min room temperature; test concentration not given
Description: Human CRTH2 cDNA was amplified by PCR using a human urinary bladder cDNA library as a template and specific primers containing HindIII and BamHI restriction sites for cloning into the pCEP4 vector (Invitrogen). The vector construction is described in detail in Sawyer et al., Br. J. Pharmocol 2002, 137, 1163-72. The nucleotide sequence of the cloned cDNA was identical the previously reported hCRTH2 sequence (Nagata et al, 1999, J. Immunol. 162, 1278-1286).
HEK293 (EBNA) cells were transfected with the pCEP4-hCRTH2 construct using the calcium phosphate technique. Cells were maintained in culture at 37° C. in an atmosphere of 5% CO2 in Dulbecco's modified Eagle's F12 medium (Invitrogen), containing 10% heat-inactivated foetal calf serum (TerraCell International, Canada), 2 mM Glutamine, 100 units/ml of penicillin and 100 μg/ml streptomycin (Invitrogen). 48 hours after the transfection, cells were grown in presence of 300 μg/ml of Hygromycin B (Invitrogen) for 4 weeks and antibiotic resistant cells were amplified for cell membrane preparation.
Adherent HEK293 (EBNA) cells expressing hCRTH2 were cultured in 225 cm^2 cell culture flasks (Corning, USA) in 30 ml of medium. After two rinses of phosphate buffered saline (PBS), cells were harvested in 10 ml of PBS containing 1 mM EDTA, centrifuged at 500×g for 5 min at 4° C. and frozen at −80° C. The pellet was re-suspended in 50 mM Tris-HCl, pH 7.4, 2 mM EDTA, 250 mM Sucrose, containing protease inhibitor cocktail tablets, (Complete EDTA-free, Roche, Germany) and incubated 30 min at 4° C. Cells were disrupted by nitrogen cavitation (Parr Instruments, USA) at 4° C. (800 p.s.i. for 30 min), and centrifuged at 500×g for 10 min at 4° C. Pellet containing nuclei and cellular debris was discarded and supernatant was centrifuged 60 min at 4° C. at 45000×g. Membrane pellet was re-suspended in storage buffer (10 mM HEPES/KOH pH 7.4, 1 mM EDTA, 250 mM sucrose, protease inhibitor cocktail tablets) using Dounce homogenization and frozen in liquid nitrogen, and stored at −80° C.
(§1) The inhibitory activity can be investigated by a radioligand binding assay (Sawyer et al., Br. J. Pharmocol 2002, 137, 1163-72). The radioligand binding assay was performed at room temperature in binding buffer (10 mM HEPES/KOH pH […], with protease inhibitor cocktail tablets), containing 1.5 nM [^3H]PGD2 (Amersham, 156 Cie/mmol), and 10 μg of hCRTH2 HEK293 (EBNA) cell membrane protein in a final volume of 100 μl in 96 well plates (Corning, USA). Non-specific binding was determined in the presence of 1 μM PGD2 (Cayman, USA). Competing pyrazine sulfonamides were diluted in dimethylsulphoxide so that the total volume of dimethylsulfoxide was kept constant at 1% dimethylsulphoxide (Me2SO). 10 μl of the pyrazine sulfonamides were added. Incubation (60 min at room temperature) was terminated by rapid filtration through 96 wells hydrophobic GF/C Unifilter plates (Whatman, USA). Filters were washed twice with 250 μl of Tris-HCl pH 7.4, 10 mM MnCl2, and residual radioligand bound to the filters was mixed to 100 μl of liquid scintillation cocktail (Optiphase Supermix, Perkin Elmer, USA) and binding activity was determined by counting residual radioligand using a 1450 Micro-beta scintillation counter (Wallac, UK).

CRTH2 [2] = biological target: T1, CRTH2; assay: Determination of Ki, equilibrium competition binding against [3H]PGD2; details: competition against [3H]PGD2; average of at least three independent dose response experiments; Ki calculated from IC50
Protocol: as §1
Ki values were determined by equilibrium competition binding experiments against [^3H]PGD2. Ki values were calculated from the formula below and represent the average of at least three independent dose response experiments. The Ki values give the ligand concentrations necessary to inhibit 50% of the binding of 3[H]PGD2 to CRTH2. Ki=IC50/(1+[Concentration of Ligand]/Kd)]
All experiments were performed in 96 well plates, in a final volume of 100 μl according to the above described filtration assay. The concentration of membranes and 3[H]PGD2, as well as the positive and negative controls were identical to the conditions described above.

CRTH2 [3] = biological target: T1, CRTH2; assay: [35S]GTPγS binding assay; format: biochemical; details: inhibition of [35S]GTPγS binding, membranes expressing hCRTH2, 80 nM PGD2 (antagonist activity)
Protocol: The [^35S]GTPγS assay measures the increase in guanine nucleotide exchange at G-proteins in cell membranes, resulting from agonist (PGD2) binding to CRTH2. This process can be monitored in vitro by incubating cell membranes containing G-proteins and CRTH2 with GDP and [^35S]GTPγS, a radiolabeled, hydrolysis-resistant analogue of GTP (see, Harrison et al., Life Sciences 74, 489-508, 2003). The addition of a pyrazine sulfonamide results in binding to CRTH2 and thus in an inhibition of agonist binding, which can be monitored as inhibition of the stimulation of GTP/GDP exchange.
Assay conditions were identical to conditions of radioligand binding assay as described in Example 21. The [^35S]GTPγS binding assay was performed at 30° C. with gentle agitation in 96-well scintillating white polystyrene plates (Perkin Elmer, USA), in a final volume of 200 μl, containing 2% of dimethylsulphoxide (Me2SO). The 2,3 substituted pyrazine sulfonamides were incubated in 20 mM HEPES/KOH pH 7.4, 1 mM MgCl2, 10 μg/ml Saponin, 3 μM GDP, 150 mM NaCl containing 10 μg of membranes expressing the hCRTH2 receptor (Euroscreen, Belgium) for 10 min. Non-specific binding was determined in the presence of 10 μM of GTPγS. Samples were incubated for 30 min in the presence of increasing concentrations of PGD2 for the determination of agonist activity, or with 80 nM of PGD2 for determination of antagonist activity, respectively. 0.15 nM of [^35S]GTPγS were subsequently added to each sample and after incubation of 30 min reactions were stopped by centrifugation at 1000×g, at 4° C. for 10 min. Supernatant was removed and [^35S]GTPγS binding was determined using a 1450 Micro-beta scintillation counter. Data were analysed using “Prism” (GraphPad Software, Inc. San Diego, USA). The determination of the IC50 values (i.e. the amount necessary to achieve 50% inhibition of binding (in μM)) were performed in 96 well plates, in a final volume of 100 μl according to the above described filtration assay. […]

T1 sequence (Q9Y5Y4 whole entry): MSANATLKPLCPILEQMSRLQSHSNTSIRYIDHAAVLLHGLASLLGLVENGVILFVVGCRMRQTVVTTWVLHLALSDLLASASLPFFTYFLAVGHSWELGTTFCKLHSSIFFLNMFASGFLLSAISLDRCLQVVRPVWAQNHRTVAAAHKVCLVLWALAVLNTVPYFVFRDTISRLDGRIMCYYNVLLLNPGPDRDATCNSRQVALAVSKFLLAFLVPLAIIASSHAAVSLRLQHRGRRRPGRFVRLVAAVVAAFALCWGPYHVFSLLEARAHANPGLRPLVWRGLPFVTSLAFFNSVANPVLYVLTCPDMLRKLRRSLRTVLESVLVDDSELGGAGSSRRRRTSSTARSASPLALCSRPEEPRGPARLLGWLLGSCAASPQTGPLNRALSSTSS

Inhibition hCRTH2 [%] (CRTH2 [1])	pKi (CRTH2 [2])	pIC50 (CRTH2 [3])	SMILES
91.5%	5.90	5.34	CN(Cc1ccc(-c2nccnc2NS(=O)(=O)c2ccccc2Cl)cc1)c1ccc(OC(F)(F)F)cc1 [Compound 2, 2-chloro-N-{3-[4-({methyl[4-(trifluoromethoxy)phenyl]amino}-methyl)-phenyl]pyrazin-2-yl}benzene sulfonamide]
94.5%	6.00	5.72	O=S(=O)(Nc1nccnc1-c1ccc(Cn2ccc3ccccc32)cc1)c1ccccc1C(F)(F)F [Compound 1, N-{3-[4-(1H-indol-1-ylmethyl)phenyl]pyrazin-2-yl}-2-(trifluoromethyl)benzene-sulfonamide]
86.5%	6.35	5.85	CCc1nc2ccccc2n1Cc1ccc(-c2nccnc2NS(=O)(=O)c2ccccc2C(F)(F)F)cc1 [Compound 3, N-(3-{4-[(2-ethyl-1H-benzimidazol-1-yl)methyl]phenyl}pyrazin-2-yl)-2-(trifluoromethyl)benzenesulfonamide]
